According to ChEMBL document CHEMBL1201862, “PubChem BioAssay data set” (2004):
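Cells were grown in 96-well plates and exposed to each compound for 48 hours at five concentrations; endpoints were interpolated linearly between bracketing concentrations, or set to the highest concentration if not reached. GI50: concentration for 50% inhibition of growth.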 Calls of active or inactive are those of the source. No stated cut-off is given here; in the data, active = GI50 up to about 1.1 µM and inactive = higher.

Experiments:
Assay in all cases: inhibition of tumour cell growth, NCI panel, 48 h
HL-60 = test system: HL-60
SW-620 = test system: SW-620
SK-MEL-5 = test system: SK-MEL-5
T47D = test system: T47D
LOX IMVI = test system: LOX IMVI
SF-295 = test system: SF-295
OVCAR-5 = test system: OVCAR-5
SF-268 = test system: SF-268
A549 = test system: A549
COLO 205 = test system: COLO 205
A498 = test system: A498
MDA-MB-435 = test system: MDA-MB-435
SK-MEL-2 = test system: SK-MEL-2
SNB-75 = test system: SNB-75
IGROV-1 = test system: IGROV-1
NCI-H23 = test system: NCI-H23
UO-31 = test system: UO-31
PC-3 = test system: PC-3
HOP-92 = test system: HOP-92
MCF7 = test system: MCF7

Measured: GI50

CCCCn1cnnc1NS(=O)(=O)c1cc(C)c(Cl)cc1SCC(=O)O
inactive: HL-60 > 10 µM | SW-620 > 10 µM | SK-MEL-5 > 10 µM | T47D > 10 µM | LOX IMVI > 10 µM | SF-295 > 10 µM | OVCAR-5 > 10 µM | SF-268 > 10 µM | A549 > 10 µM | COLO 205 > 10 µM | A498 > 10 µM | MDA-MB-435 > 10 µM | SK-MEL-2 > 10 µM | SNB-75 > 10 µM | IGROV-1 > 10 µM | NCI-H23 > 10 µM | UO-31 > 10 µM | PC-3 > 10 µM

CCOC(=O)c1c(N2CCCC2)ncn(Cc2ccccc2)c1=S
inactive: HL-60 > 100 µM | SW-620 > 100 µM | HOP-92 19.5 µM | SK-MEL-5 65.3 µM | T47D 93.8 µM | LOX IMVI > 100 µM | SF-295 > 100 µM | OVCAR-5 > 100 µM | SF-268 > 100 µM | A549 > 100 µM | COLO 205 > 100 µM | A498 49.4 µM | MDA-MB-435 > 100 µM | SK-MEL-2 > 100 µM | SNB-75 47.6 µM | IGROV-1 > 100 µM | NCI-H23 > 100 µM | UO-31 55.8 µM | PC-3 90.4 µM

COC(=O)/C=C1\SC2(O\C1=N/c1ccccc1)C1CC3CC(C1)CC2C3 (stereo unspecified)
inactive: HL-60 > 100 µM | SW-620 > 100 µM | HOP-92 > 100 µM | SK-MEL-5 > 100 µM | LOX IMVI > 100 µM | SF-295 > 100 µM | OVCAR-5 > 100 µM | A549 > 100 µM | MCF7 > 100 µM | A498 > 100 µM | MDA-MB-435 > 100 µM | SK-MEL-2 > 100 µM | SNB-75 > 100 µM | IGROV-1 > 100 µM | UO-31 > 100 µM | PC-3 > 100 µM

NNC1=N/C(=C\c2ccccc2O)C(=O)N1
inactive: HL-60 14.6 µM | SW-620 47.1 µM | HOP-92 > 100 µM | SK-MEL-5 35 µM | T47D 38.5 µM | LOX IMVI 24.5 µM | SF-295 36 µM | OVCAR-5 65.3 µM | SF-268 31 µM | A549 30.9 µM | COLO 205 29.6 µM | A498 > 100 µM | MDA-MB-435 61.4 µM | SK-MEL-2 63.8 µM | SNB-75 > 100 µM | IGROV-1 36.2 µM | NCI-H23 53.6 µM | UO-31 16.6 µM | PC-3 49.2 µM

CC1(C)OC2OC(COC(=O)C=[N+]=[N-])C3OC(C)(C)OC3C2O1 (stereo unspecified)
inactive: HL-60 > 100 µM | SW-620 > 100 µM | HOP-92 > 100 µM | SK-MEL-5 > 100 µM | LOX IMVI > 100 µM | SF-295 > 100 µM | OVCAR-5 > 100 µM | SF-268 > 100 µM | MCF7 > 100 µM | COLO 205 > 100 µM | A498 > 100 µM | MDA-MB-435 > 100 µM | SK-MEL-2 > 100 µM | IGROV-1 > 100 µM | NCI-H23 > 100 µM | UO-31 > 100 µM | PC-3 > 100 µM

O=Nc1c(-c2c(O)[nH]c3ccc(I)cc23)[nH]c2ccccc12
inactive: HL-60 2.61 µM | HOP-92 > 20.2 µM | SK-MEL-5 4.12 µM | LOX IMVI 2.45 µM | SF-295 6.28 µM | OVCAR-5 3.25 µM | SF-268 4.42 µM | A549 3.27 µM | MCF7 2.41 µM | COLO 205 4.26 µM | MDA-MB-435 4.55 µM | SK-MEL-2 1.99 µM | SNB-75 5.33 µM | IGROV-1 2.13 µM | NCI-H23 4.58 µM | UO-31 2.19 µM | PC-3 3.37 µM
